Measurements: US6894075B2, “4′-demethyl-4′-O-substituted-1-deoxypodophyllotoxin derivative and geometric isomer thereof, process for the preparation thereof and anti-cancer composition comprising the same” (priority 2000, dated 2005)

Tests used:
[1] = tested on: SK-MEL-2 cell; assay: Cytotoxicity test (SRB method) for SK-MEL-2 cells; assay type: cell-based, human; settings: SK-MEL-2, SRB, 48 hours incubation
Excerpt: (§1) Human lung carcinomas A549 and […] were used for determining cytotoxicity of the compounds of the present invention according to the Sulfrhodamine-B (SRB) method which was developed by NCI in 1989 in order to determine in vitro anticancer activity of drugs.
(§2) Cells to be used in the experiment were separated from a surface using 0.5% Trypsin-EDTA solution and suspended in a density of 5×10^4 cell/ml therein. The cell suspension was introduced into a 96-well plate in an amount of 180/well and incubated for 24 hours in a 5% CO2 incubator of 37° C. Samples were dissolved in dimethylsulfoxide and then diluted by water distilled in advance for three times just before the experiment. Forty-one (41) samples were prepared into 4 types of final concentrations, i.e., 0.1, 0.03, 0.01 and 0.003 mg per ml of the medium. The diluted sample solutions were added to the 96-well plate in the amount of 20 μl/well and incubated for 48 hours in a CO2 incubator of 37° C. At the time of adding the samples, Tz (Time zero) plate was taken. The medium was removed from the Tz plate and each of the plates after incubation were completed. Ten (10)% […] (TCA) was added in the amount of […], and allowed to stand for 1 hour at 4° C. to fix the cells on the bottom surface of the plate. After the cells were fixed, the plate was washed five to six times with water to completely remove the remaining TCA solution and then dried at room temperature to completely remove the moisture. To the fully dried plate was introduced a dye solution in the amount of […] in which 0.4% SRB was dissolved in 1% acetic acid solution. […] After the dyeing process, the plate was dried again at room temperature. 100 ml of 10 mM Tris solution was added thereto in order to dissolve the dye, and then O.D. (optical density) was determined by microplate reader at 520 nm.
(§3) ED50 values for cancer cells were calculated as follows. The amount of SRB protein was analyzed at the time when incubation started by the addition of the sample. This amount was named time zero (Tz). The O.D. value obtained from a group which was not treated by the sample was named Control group (C) and the O.D. value obtained from a group which was treated by the sample was named Test group (T).
(§4) The degree of cytotoxicity of the compounds was calculated from Tz, C and T values according to the following equation.
(§5) That is, in the case of Tz≧T, the degree was calculated by
(§6) (T−Tz)/(C−Tz)×100(%), and
(§7) • in the case of Tz<T, the degree was calculated by […].
(§8) From the values thus obtained, ED50 value which is defined as the concentration at which growth of the cancer cell is inhibited by 50% was calculated using the regression function of Excel program.

[2] = tested on: A549 cell; assay: Cytotoxicity test (SRB method) for A549 cells; assay type: cell-based, human; settings: A549, SRB, 48 hours incubation, Table 2
Excerpt: as §1, §2, §3, §4, §5, §6, §7, §8

| SMILES | ED50(mg/mL) for SK-MEL-2 [1] [mg/mL] | ED50(mg/mL) for A549 [2] [mg/mL] |
| --- | --- | --- |
| CCCCCC/C=C\CCCCCCCC(=O)Oc1c(OC)cc(C2c3cc4c(cc3CC3COC(=O)C32)OCO4)cc1OC (stereo not drawn) [Compound 1c-14, 4′-demethyl-4′-O-(cis-9′-hexadecenoyl)-1-deoxypodophyllo-toxin] | 0.065 | 0.733 |
| CCCCCCCCCCCCCCCCCC(=O)Oc1c(OC)cc(C2c3cc4c(cc3CC3COC(=O)C32)OCO4)cc1OC (centres unmarked) [Compound 1c-15, 4′-demethyl-4′-O-octadecanoyl-1-deoxypodophyllotoxin] | >5 | 2.670 |
| CCCCCCCC/C=C\CCCCCCCC(=O)Oc1c(OC)cc(C2c3cc4c(cc3CC3COC(=O)C32)OCO4)cc1OC (stereo not drawn) [Compound 1c-16, 4′-demethyl-4′-O-(cis-9′-octadecenoyl)-1-deoxypodophyllo-toxin] | 0.159 | 0.179 |
| CCCCCCCC/C=C/CCCCCCCC(=O)Oc1c(OC)cc(C2c3cc4c(cc3CC3COC(=O)C32)OCO4)cc1OC (stereo not drawn) [Compound 1c-17, 4′-demethyl-4′-O-(trans-9′-octadecenoyl)-1-deoxypodophyllo-toxin] | 0.550 | 0.367 |
| CCCCCC/C=C\CCCCCCCCCC(=O)Oc1c(OC)cc(C2c3cc4c(cc3CC3COC(=O)C32)OCO4)cc1OC (stereo not drawn) [Compound 1c-18, 4′-demethyl-4′-O-(cis-11′-octadecenoyl)-1-deoxypodophyllo-toxin] | 0.057 | 0.335 |
| CCCCCC/C=C/CCCCCCCCCC(=O)Oc1c(OC)cc(C2c3cc4c(cc3CC3COC(=O)C32)OCO4)cc1OC (stereo not drawn) [Compound 1c-19, 4′-demethyl-4′-O-(trans-11′-octadecenoyl)-1-deoxypodophyllo-toxin] | 0.253 | 1.010 |
| CCCCC/C=C\C/C=C\CCCCCCCC(=O)Oc1c(OC)cc(C2c3cc4c(cc3CC3COC(=O)C32)OCO4)cc1OC (stereo not drawn) [Compound 1c-20, 4′-demethyl-4′-O-(cis-9′,12′-octadecadienoyl)-1-deoxypodophyllo-toxin] | 0.030 | 0.090 |
| CCCCC/C=C/C/C=C/CCCCCCCC(=O)Oc1c(OC)cc(C2c3cc4c(cc3CC3COC(=O)C32)OCO4)cc1OC (stereo not drawn) [Compound 1c-21, 4′-demethyl-4′-O-(trans-9′,12′-octadecadienoyl)-1-deoxypodophyllo-toxin] | 0.110 | 0.259 |
| CC/C=C\C/C=C\C/C=C\CCCCCCCC(=O)Oc1c(OC)cc(C2c3cc4c(cc3CC3COC(=O)C32)OCO4)cc1OC (stereo not drawn) [Compound 1c-22, 4′-demethyl-4′-O-(cis-9′,12′,15′-octadecatrienoyl)-1-deoxypodophyllotoxin] | 0.048 | 0.084 |
| CCCCC/C=C\C/C=C\C/C=C\CCCCC(=O)Oc1c(OC)cc(C2c3cc4c(cc3CC3COC(=O)C32)OCO4)cc1OC (stereo not drawn) [Compound 1c-23, 4′-demethyl-4′-O-(cis-6′,9′,12′-octadecatrienoyl)-1-deoxypodophyllotoxin] | 0.041 | 0.085 |
| CCCCCCCCCCCCCCCCCCCC(=O)Oc1c(OC)cc(C2c3cc4c(cc3CC3COC(=O)C32)OCO4)cc1OC (centres unmarked) [Compound 1c-24, 4′-demethyl-4′-O-eicosanoyl-1-deoxypodophyllotoxin] | >5 | >5 |
| CCCCCCCC/C=C\CCCCCCCCCC(=O)Oc1c(OC)cc(C2c3cc4c(cc3CC3COC(=O)C32)OCO4)cc1OC (stereo not drawn) [Compound 1c-25, 4′-demethyl-4′-O-(cis-11′-eicosenoyl)-1-deoxypodophyllotoxin] | >5 | >5 |
| CCCCCCCC/C=C/CCCCCCCCCC(=O)Oc1c(OC)cc(C2c3cc4c(cc3CC3COC(=O)C32)OCO4)cc1OC (stereo not drawn) [Compound 1c-26, 4′-demethyl-4′-O-(trans-11′-eicosenoyl)-1-deoxypodophyllotoxin] | 1.130 | 1.660 |
| CCCCC/C=C\C/C=C\CCCCCCCCCC(=O)Oc1c(OC)cc(C2c3cc4c(cc3CC3COC(=O)C32)OCO4)cc1OC (stereo not drawn) [Compound 1c-27, 4′-demethyl-4′-O-(cis-11′,14′-eicosadienoyl)-1-deoxypodophyllotoxin] | 0.347 | 0.870 |
| CCCCC/C=C\C/C=C\C/C=C\C/C=C\CCCC(=O)Oc1c(OC)cc(C2c3cc4c(cc3CC3COC(=O)C32)OCO4)cc1OC (stereo not drawn) [Compound 1c-28, 4′-demethyl-4′-O-(cis-5′,8′,11′,14′-eicosatetraenoyl)-1-deoxypodophyllotoxin] | 0.184 | 0.910 |
| CCCCCCCCCCCCCCCCCCCCCC(=O)Oc1c(OC)cc(C2c3cc4c(cc3CC3COC(=O)C32)OCO4)cc1OC (centres unmarked) [Compound 1c-29, 4′-demethyl-4′-O-docosanoyl-1-deoxypodophyllotoxin] | >5 | >5 |
| CCCCCCCC/C=C\CCCCCCCCCCCC(=O)Oc1c(OC)cc(C2c3cc4c(cc3CC3COC(=O)C32)OCO4)cc1OC (stereo not drawn) [Compound 1c-30, 4′-demethyl-4′-O-(cis-13′-docosenoyl)-1-deoxypodophyllotoxin] | 0.561 | 2.710 |
| CC/C=C\C/C=C\C/C=C\C/C=C\C/C=C\C/C=C\CCC(=O)Oc1c(OC)cc(C2c3cc4c(cc3CC3COC(=O)C32)OCO4)cc1OC (stereo not drawn) [Compound 1c-31, 4′-demethyl-4′-O-(cis-4′,7′,10′,13′,16′,19′-docohexaenoyl)-1-deoxypodophyllotoxin] | 0.035 | 0.119 |
| COc1cc(C2c3cc4c(cc3CC3COC(=O)C32)OCO4)cc(OC)c1OC(=O)/C=C(C)/C=C/C=C(C)/C=C/C1=C(C)CCCC1(C)C (centres unmarked) [Compound 1c-32, 4′-demethyl-4′-O-retinoyl-1-deoxypodophyllotoxin] | 0.387 | 2.130 |
| COc1cc(C2c3cc4c(cc3CC3COC(=O)C32)OCO4)cc(OC)c1OC(=O)CCCCC(=O)O (centres unmarked) [Compound 1c-33, 4′-demethyl-4′-O-(5′-carboxy-pentanoyl)-1-deoxypodophyllotoxin] | 0.062 | 0.258 |
| COc1cc(C2c3cc4c(cc3CC3COC(=O)C32)OCO4)cc(OC)c1OC(=O)CCCCCCC(=O)O (centres unmarked) [Compound 1c-34, 4′-demethyl-4′-O-(7′-carboxy-heptanoyl)-1-deoxypodophyllotoxin] | 0.066 | 0.175 |
| COc1cc(C2c3cc4c(cc3CC3COC(=O)C32)OCO4)cc(OC)c1OC(=O)CCCCCCCCC(=O)O (centres unmarked) [Compound 1c-35, 4′-demethyl-4′-O-(9′-carboxy-nonanoyl)-1-deoxypodophyllotoxin] | 0.015 | 0.014 |
| COc1cc(C2c3cc4c(cc3CC3COC(=O)C32)OCO4)cc(OC)c1OC(=O)CCCCCCCCCCC(=O)O (centres unmarked) [Compound 1c-36, 4′-demethyl-4′-O-(11′-carboxy-undecanoyl)-1-deoxypodophyllotoxin] | 0.068 | 0.046 |
| COc1cc(C2c3cc4c(cc3CC3COC(=O)C32)OCO4)cc(OC)c1OC(=O)CCCCCCCCCCCCC(=O)O (centres unmarked) [Compound 1c-37, 4′-demethyl-4′-O-(13′-carboxy-tridecanoyl)-1-deoxypodophyllotoxin] | 0.070 | 0.019 |
| COc1cc(C2c3cc4c(cc3CC3COC(=O)C32)OCO4)cc(OC)c1OC(=O)CCCCCCCCCCCCCCC(=O)O (centres unmarked) [Compound 1c-38, 4′-demethyl-4′-O-(15′-carboxy-pentadecanoyl)-1-deoxypodophyllotoxin] | 0.027 | 0.106 |
